Measurements as given in PubChem BioAssay AID330 (DTP/NCI, 2004).
Values joined by “and” are separate entries in the source; they are usually repeats but may differ in a detail not shown here. Equal values may be shown once. Inconclusive results and toxic doses are left out. The calls were made as follows: active = survival T/C of 150% or more; inactive = T/C below 125% in these data. Square brackets hold non-standard residues; d marks the D form. Peptide text beside a SMILES is read from it. * marks the point of attachment. ξ: configuration not given here. Cbz = O=C(OCc1ccccc1)*; ξT = CC(O)C(N)C(=O)O

Tested on: P388 leukemia ip, CD2F1 mice, survival T/C
Assay: NCI In Vivo Anticancer Drug Screen. Data for tumor model P388 Leukemia (intraperitoneal) in CD2F1 (CDF1) mice
Conditions: endpoint: median survival time, higher = longer survival
Procedure, shortened: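 Mice carrying the transplanted tumor received test compound or vehicle. Survival was recorded in each group, and the value is the treated-group measurement divided by that of the vehicle-treated control group.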

[1] = dose: 60.0 mg/kg/injection, schedule: Q01DX005 (ip), vehicle: saline with Tween-80
[2] = dose: 120.0 mg/kg/injection, schedule: Q01DX005 (ip), vehicle: saline with Tween-80
[3] = dose: 240.0 mg/kg/injection, schedule: Q01DX005 (ip), vehicle: saline with Tween-80
[4] = dose: 50.0 mg/kg/injection, schedule: Q01DX009 (ip), vehicle: saline with Tween-80
[5] = dose: 100.0 mg/kg/injection, schedule: Q01DX009 (ip), vehicle: saline with Tween-80
[6] = dose: 200.0 mg/kg/injection, schedule: Q01DX009 (ip), vehicle: saline with Tween-80
[7] = dose: 50.0 mg/kg/injection, schedule: Q01DX005 (ip), vehicle: Klucel (hydroxypropylcellulose) (HPC)
[8] = dose: 100.0 mg/kg/injection, schedule: Q01DX005 (ip), vehicle: Klucel (hydroxypropylcellulose) (HPC)
[9] = dose: 200.0 mg/kg/injection, schedule: Q01DX005 (ip), vehicle: Klucel (hydroxypropylcellulose) (HPC)
[10] = dose: 50.0 mg/kg/injection, schedule: Q01DX009 (ip), vehicle: Klucel (hydroxypropylcellulose) (HPC)
[11] = dose: 100.0 mg/kg/injection, schedule: Q01DX009 (ip), vehicle: Klucel (hydroxypropylcellulose) (HPC)
[12] = dose: 60.0 mg/kg/injection, schedule: Q01DX005 (ip), vehicle: Klucel (hydroxypropylcellulose) (HPC)
[13] = dose: 120.0 mg/kg/injection, schedule: Q01DX005 (ip), vehicle: Klucel (hydroxypropylcellulose) (HPC)
[14] = dose: 240.0 mg/kg/injection, schedule: Q01DX005 (ip), vehicle: Klucel (hydroxypropylcellulose) (HPC)

Measured: T/C

COc1ccc(C(OCC2CC3C=CC2C3)OCC2CC3C=CC2C3)cc1 (configuration not stated)
inactive: dose: 12.5 mg/kg/injection, schedule: Q01DX009 (ip), vehicle: other 110 % of control | dose: 25.0 mg/kg/injection, schedule: Q01DX009 (ip), vehicle: other 111 % of control | dose: 50.0 mg/kg/injection, schedule: Q01DX009 (ip), vehicle: other 105 % of control | dose: 100.0 mg/kg/injection, schedule: Q01DX009 (ip), vehicle: other 114 % of control | dose: 200.0 mg/kg/injection, schedule: Q01DX009 (ip), vehicle: other 114 % of control

CC1(C)C=CC2=C(O1)C(=O)c1ccccc1C2=O
inactive: dose: 25.0 mg/kg/injection, schedule: Q01DX009 (ip), vehicle: water 101 % of control | dose: 50.0 mg/kg/injection, schedule: Q01DX009 (ip), vehicle: water 107 % of control | dose: 100.0 mg/kg/injection, schedule: Q01DX009 (ip), vehicle: water 115 % of control | dose: 200.0 mg/kg/injection, schedule: Q01DX009 (ip), vehicle: water 110 % of control

COc1cccc(CN2C(=O)NC(C)(C)C2O)c1 (configuration not stated)
inactive: [1] 99 % of control | [2] 101 % of control | [3] 101 % of control

CCCCCCCCCCCC(=O)NC1CCS(=O)(=O)C1 (configuration not stated)
inactive: dose: 37.5 mg/kg/injection, schedule: Q01DX009 (ip), vehicle: Klucel (hydroxypropylcellulose) (HPC) 99 % of control | dose: 75.0 mg/kg/injection, schedule: Q01DX009 (ip), vehicle: Klucel (hydroxypropylcellulose) (HPC) 96 % of control | dose: 150.0 mg/kg/injection, schedule: Q01DX009 (ip), vehicle: Klucel (hydroxypropylcellulose) (HPC) 97 % of control | dose: 300.0 mg/kg/injection, schedule: Q01DX009 (ip), vehicle: Klucel (hydroxypropylcellulose) (HPC) 95 % of control

CC/C(=C\c1ccccc1)[N+](=O)[O-]
inactive: dose: 12.5 mg/kg/injection, schedule: Q01DX009 (ip), vehicle: saline with Tween-80 103 % of control | dose: 25.0 mg/kg/injection, schedule: Q01DX009 (ip), vehicle: saline with Tween-80 123 % of control

O=C(N/N=C/c1ccccc1O)c1ccccc1-n1cccc1
inactive: [4] 95 % of control | [5] 104 % of control | [6] 94 % of control

Cc1ccc2[nH]c(=S)n(-c3ccc(S(=O)(=O)N4CCCCC4)cc3)c(=O)c2c1
inactive: dose: 50.0 mg/kg/injection, schedule: Q01DX005 (ip), vehicle: saline with Tween-80 89 % of control | dose: 100.0 mg/kg/injection, schedule: Q01DX005 (ip), vehicle: saline with Tween-80 91 % of control | dose: 200.0 mg/kg/injection, schedule: Q01DX005 (ip), vehicle: saline with Tween-80 90 % of control

N#Cc1ccccc1N1CCCC1=O
inactive: dose: 100.0 mg/kg/injection, schedule: Q04DX002 (ip), vehicle: saline 90 % of control | dose: 200.0 mg/kg/injection, schedule: Q04DX002 (ip), vehicle: saline 102 % of control | dose: 400.0 mg/kg/injection, schedule: Q04DX002 (ip), vehicle: saline 97 % of control

CC1(CSc2ccc3ccccc3c2)CC(=O)N1 (configuration not stated)
inactive: dose: 100.0 mg/kg/injection, schedule: Q01DX001 (ip), vehicle: suspension in saline 99 % of control | dose: 200.0 mg/kg/injection, schedule: Q01DX001 (ip), vehicle: suspension in saline 99 % of control | dose: 400.0 mg/kg/injection, schedule: Q01DX001 (ip), vehicle: suspension in saline 98 % of control

O=c1[nH]cnc2nc(Cl)[nH]c12
inactive: [7] 98 % of control | [8] 98 % of control | [9] 95 % of control

CC(O)C(NC(=O)OCc1ccccc1)C(=O)NCC(N)=O (configuration not stated) (Cbz-[ξT]-Gly-NH2)
inactive: [7] 101 % of control | [8] 115 % of control | [9] 101 % of control

NC(=S)n1nc(-c2ccccc2)c(N=Nc2ccc([N+](=O)[O-])cc2)c1-c1ccccc1
inactive: dose: 25.0 mg/kg/injection, schedule: Q04DX002 (ip), vehicle: saline with Tween-80 100 % of control | dose: 50.0 mg/kg/injection, schedule: Q04DX002 (ip), vehicle: saline with Tween-80 97 % of control | dose: 100.0 mg/kg/injection, schedule: Q04DX002 (ip), vehicle: saline with Tween-80 87 % of control and 88 % of control | dose: 400.0 mg/kg/injection, schedule: Q04DX002 (ip), vehicle: saline with Tween-80 92 % of control

CC(C)(C)OC(=O)NC(Cc1cn(Cc2ccccc2)cn1)C(=O)O (configuration not stated)
inactive: [4] 96 % of control | [5] 89 % of control | [6] 108 % of control

Cc1cc(Nc2ccc(O)cc2)nc(Nc2ccc(O)cc2)n1
inactive: [1] 99 % of control | [2] 99 % of control | [3] 103 % of control

O=C(C=C(C(F)(F)F)C(F)(F)F)c1ccc(C(=O)C=C(C(F)(F)F)C(F)(F)F)cc1
inactive: dose: 50.0 mg/kg/injection, schedule: Q04DX003 (ip), vehicle: saline with Tween-80 118 % of control | dose: 100.0 mg/kg/injection, schedule: Q04DX003 (ip), vehicle: saline with Tween-80 100 % of control

O=C(O)c1c[nH]c2ccc([N+](=O)[O-])cc2c1=O
inactive: dose: 0.63 mg/kg/injection, schedule: Q01DX009 (ip), vehicle: Klucel (hydroxypropylcellulose) (HPC) 110 % of control | dose: 1.25 mg/kg/injection, schedule: Q01DX009 (ip), vehicle: Klucel (hydroxypropylcellulose) (HPC) 94 % of control | dose: 2.5 mg/kg/injection, schedule: Q01DX009 (ip), vehicle: Klucel (hydroxypropylcellulose) (HPC) 101 % of control | dose: 5.0 mg/kg/injection, schedule: Q01DX009 (ip), vehicle: Klucel (hydroxypropylcellulose) (HPC) 104 % of control | dose: 10.0 mg/kg/injection, schedule: Q01DX009 (ip), vehicle: Klucel (hydroxypropylcellulose) (HPC) 100 % of control | dose: 90.0 mg/kg/injection, schedule: Q01DX009 (ip), vehicle: Klucel (hydroxypropylcellulose) (HPC) 86 % of control

Cc1ccc(S(=O)(=O)N(CCc2ccc(Cl)cc2)S(=O)(=O)c2ccc(C)cc2)cc1
inactive: [10] 109 % of control | [11] 94 % of control | dose: 200.0 mg/kg/injection, schedule: Q01DX009 (ip), vehicle: Klucel (hydroxypropylcellulose) (HPC) 93 % of control

CN1C(=O)Cn2c(n[nH]c(=O)c2=O)-c2cc(Cl)ccc21
inactive: [10] 95 % of control | [11] 86 % of control

COc1ccc(C2OC(=O)C=C(C)O2)cc1 (configuration not stated)
inactive: [12] 104 % of control | [13] 98 % of control | [14] 117 % of control

C1OC2CC1CO2
inactive: [4] 100 % of control | [5] 103 % of control | [6] 103 % of control

N#C/C(=C\c1cccs1)c1ccccc1
inactive: [4] 102 % of control | [5] 103 % of control | [6] 100 % of control | dose: 400.0 mg/kg/injection, schedule: Q01DX009 (ip), vehicle: saline with Tween-80 105 % of control

CC1(C)CC(C)(C)C2(OC3=C([Se]2)C(C)(C)CC(C)(C)C3=O)C(=O)C1=O (configuration not stated)
inactive: [4] 100 % of control | [5] 118 % of control | [6] 117 % of control

Cc1ccc(N=CNN(C)S(=O)(=O)c2ccc(C)cc2)cc1
inactive: [12] 92 % of control | [13] 108 % of control | [14] 90 % of control

CCOc1ccc(NC(=O)C(C(C)N2CCCCC2)N2CCCCC2)cc1 (configuration not stated)
inactive: dose: 12.5 mg/kg/injection, schedule: Q01DX009 (ip), vehicle: saline 93 % of control | dose: 25.0 mg/kg/injection, schedule: Q01DX009 (ip), vehicle: saline 87 % of control

CCCCCCCCCCS(=O)(=O)OCCCCOS(=O)(=O)CCCCCCCCCC
inactive: [7] 103 % of control | [8] 103 % of control | [9] 93 % of control

Cc1ncc(CO)c(CO)c1OCC(O)CN1CCN(c2ccc(F)cc2)CC1 (configuration not stated)
inactive: [1] 99 % of control | [2] 98 % of control | [3] 104 % of control

CCC(C)(CC(=O)O)c1ccccc1 (configuration not stated)
inactive: dose: 25.0 mg/kg/injection, schedule: Q04DX003 (ip), vehicle: Klucel (hydroxypropylcellulose) (HPC) 108 % of control | dose: 50.0 mg/kg/injection, schedule: Q04DX003 (ip), vehicle: Klucel (hydroxypropylcellulose) (HPC) 111 % of control | dose: 100.0 mg/kg/injection, schedule: Q04DX003 (ip), vehicle: Klucel (hydroxypropylcellulose) (HPC) 112 % of control | dose: 200.0 mg/kg/injection, schedule: Q04DX003 (ip), vehicle: Klucel (hydroxypropylcellulose) (HPC) 115 % of control
